This is an account of results in US9326986B2, “Quinazolinone, quinolone and related analogs as sirtuin modulators” (GLAXOSMITHKLINE LLC, priority 2008, dated 2016).

For the test, the target named is T1, SIRT1 (Homo sapiens, UniProt Q96EB6).
T1 sequence (Q96EB6 1-747): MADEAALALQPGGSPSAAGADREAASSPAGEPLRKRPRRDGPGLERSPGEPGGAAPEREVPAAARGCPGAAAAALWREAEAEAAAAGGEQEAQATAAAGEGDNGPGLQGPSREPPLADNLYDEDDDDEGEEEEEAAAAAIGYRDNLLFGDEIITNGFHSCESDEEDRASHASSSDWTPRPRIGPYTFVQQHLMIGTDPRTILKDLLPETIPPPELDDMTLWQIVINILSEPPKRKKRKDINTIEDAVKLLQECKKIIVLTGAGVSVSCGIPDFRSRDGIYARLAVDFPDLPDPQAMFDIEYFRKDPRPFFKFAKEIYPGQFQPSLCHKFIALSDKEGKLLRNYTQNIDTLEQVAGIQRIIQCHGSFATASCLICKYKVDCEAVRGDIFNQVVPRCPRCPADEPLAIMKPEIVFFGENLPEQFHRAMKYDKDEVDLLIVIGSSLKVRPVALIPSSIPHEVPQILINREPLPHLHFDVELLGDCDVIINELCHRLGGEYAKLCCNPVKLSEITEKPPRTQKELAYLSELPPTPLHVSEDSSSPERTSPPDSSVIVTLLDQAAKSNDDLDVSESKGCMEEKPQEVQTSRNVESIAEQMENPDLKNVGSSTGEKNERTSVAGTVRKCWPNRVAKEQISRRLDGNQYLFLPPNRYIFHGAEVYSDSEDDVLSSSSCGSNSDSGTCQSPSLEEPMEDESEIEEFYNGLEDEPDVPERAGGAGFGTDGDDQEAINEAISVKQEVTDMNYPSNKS
Kind of test: Mass spectrometry based assay to identify modulators of SIRT1 activity (deacetylation of p53-based acetylated peptide). Conditions: 10 nM SIRT1, 0.5 μM peptide substrate, 120 μM βNAD+, 25 minutes at 25° C.; for EC1.5 μM: SIRT1 activation. It is filed as biochemical.

Regarding `Cn1c(-c2cccc(C(F)(F)F)c2)nc2c(NC(=O)c3cccc(N4CCCC4)n3)cccc2c1=O` [Compound 342], the “% Fold Act. (percent maximum fold activation)” value is given as “A (Fold activation>200%)” and the “EC1.5 μM” value is on record as “A (EC1.5<1.0 μM)”.

On to `CN1CCCCC1C(=O)Nc1cccc2c(=O)n(C)c(-c3cccc(C(F)(F)F)c3)nc12` (stereo not shown) [Compound 343], for which the “% Fold Act. (percent maximum fold activation)” value is on record as “B (Fold Activation<200%)” and the “EC1.5 μM” value was “C (EC1.5>25 μM)”.

As for `Cn1c(-c2cccc(C(F)(F)F)c2)nc2c(C(=O)Nc3cccc(CN4CCOCC4)n3)cccc2c1=O` [Compound 344], the “% Fold Act. (percent maximum fold activation)” value is on record as “A (Fold activation>200%)” and the “EC1.5 μM” value is listed as “A (EC1.5<1.0 μM)”.

For the compound `Cn1c(-c2cccc(C(F)(F)F)c2)nc2c(C(=O)Nc3cccc(CN4CC[C@@H](F)C4)n3)cccc2c1=O` [Compound 345], the “% Fold Act. (percent maximum fold activation)” value is “A (Fold activation>200%)” and the “EC1.5 μM” value was “A (EC1.5<1.0 μM)”.

For the compound `Cn1c(-c2cccc(C(F)(F)F)c2)nc2c(C(=O)Nc3ccc(CN4CC[C@H](F)C4)cn3)cccc2c1=O` [Compound 346], the “% Fold Act. (percent maximum fold activation)” value is recorded as “A (Fold activation>200%)” and the “EC1.5 μM” value is recorded as “A (EC1.5<1.0 μM)”.

As to `Cn1c(-c2cccc(C(F)(F)F)c2)nc2c(C(=O)Nc3ccnc(CN4CCNCC4)n3)cccc2c1=O` [Compound 347], the “% Fold Act. (percent maximum fold activation)” value was “A (Fold activation>200%)” and the “EC1.5 μM” value was “A (EC1.5<1.0 μM)”.

As to `Cn1c(-c2cccc(C(F)(F)F)c2)nc2c(C(=O)Nc3cccc(CN4CCNCC4)n3)cccc2c1=O` [Compound 348], the “% Fold Act. (percent maximum fold activation)” value is “A (Fold activation>200%)” and the “EC1.5 μM” value was “A (EC1.5<1.0 μM)”.

As to `Cn1c(-c2cccc(C(F)(F)F)c2)nc2c(C(=O)Nc3ccnc(N4CCCC4)c3)cccc2c1=O` [Compound 349], the “% Fold Act. (percent maximum fold activation)” value is “A (Fold activation>200%)” and the “EC1.5 μM” value is “A (EC1.5<1.0 μM)”.

Consider `Cn1c(-c2cccc(C(F)(F)F)c2)nc2c(C(=O)Nc3cccc(N4CCCC4)n3)cccc2c1=O` [Compound 350, 3-methyl-4-oxo-N-(6-(pyrrolidin-1-yl)pyridin-2-yl)-2-(3-(trifluoromethyl)phenyl)-3,4-dihydroquinazoline-8-carboxamide], for which the “% Fold Act. (percent maximum fold activation)” value is reported as “B (Fold Activation<200%)” and the “EC1.5 μM” value is listed as “B (EC1.5 1-25 μM)”.

`Cn1c(-c2cccc(C(F)(F)F)c2)nc2c(C(=O)Nc3cccc(CN4CCCC4)n3)cccc2c1=O` [Compound 351]: the “% Fold Act. (percent maximum fold activation)” value is on record as “A (Fold activation>200%)” and the “EC1.5 μM” value is “A (EC1.5<1.0 μM)”.

Consider `Cn1c(-c2cccc(C(F)(F)F)c2)nc2c(C(=O)Nc3cccc(CN4CC[C@H](F)C4)n3)cccc2c1=O` [Compound 352], for which the “% Fold Act. (percent maximum fold activation)” value is on record as “A (Fold activation>200%)” and the “EC1.5 μM” value was “A (EC1.5<1.0 μM)”.

With `Cn1c(-c2cccc(C(F)(F)F)c2)nc2c(C(=O)Nc3cccc(OC[C@H](O)CO)n3)cccc2c1=O` [Compound 353], the “% Fold Act. (percent maximum fold activation)” value is listed as “A (Fold activation>200%)” and the “EC1.5 μM” value is on record as “A (EC1.5<1.0 μM)”.

In the case of `Cn1c(-c2cccc(C(F)(F)F)c2)nc2c(C(=O)Nc3cncc(OCC(O)CO)n3)cccc2c1=O` (stereo not shown) [Compound 354], the “% Fold Act. (percent maximum fold activation)” value was “A (Fold activation>200%)” and the “EC1.5 μM” value is recorded as “A (EC1.5<1.0 μM)”.

With `Cn1c(-c2cccc(C(F)(F)F)c2)nc2c(C(=O)Nc3ccnc(OCC(O)CO)n3)cccc2c1=O` (stereo not shown) [Compound 355], the “% Fold Act. (percent maximum fold activation)” value is recorded as “A (Fold activation>200%)” and the “EC1.5 μM” value is listed as “A (EC1.5<1.0 μM)”.

For the compound `Cn1c(-c2cccc(C(F)(F)F)c2)nc2c(C(=O)Nc3cccc(OC[C@@H](O)CO)n3)cccc2c1=O` [Compound 356], the “% Fold Act. (percent maximum fold activation)” value is listed as “A (Fold activation>200%)” and the “EC1.5 μM” value is “A (EC1.5<1.0 μM)”.

As to `Cn1c(-c2cccc(C(F)(F)F)c2)nc2c(C(=O)Nc3nc(CN4CCCC4)cs3)cccc2c1=O` [Compound 357], the “% Fold Act. (percent maximum fold activation)” value is listed as “A (Fold activation>200%)” and the “EC1.5 μM” value is reported as “A (EC1.5<1.0 μM)”.

Consider `Cn1c(-c2cccc(C(F)(F)F)c2)nc2c(C(=O)Nc3ncc(CN4CCCC4)s3)cccc2c1=O` [Compound 358], for which the “% Fold Act. (percent maximum fold activation)” value is recorded as “A (Fold activation>200%)” and the “EC1.5 μM” value is “B (EC1.5 1-25 μM)”.

Turning to `Cn1c(-c2cccc(C(F)(F)F)c2)nc2c(C(=O)Nc3ccnc(CN4CCCC4)n3)cccc2c1=O` [Compound 359], the “% Fold Act. (percent maximum fold activation)” value is reported as “A (Fold activation>200%)” and the “EC1.5 μM” value was “B (EC1.5 1-25 μM)”.

Turning to `Cn1c(-c2cccc(C(F)(F)F)c2)nc2c(C(=O)Nc3cccc(OCC(O)CO)c3)cccc2c1=O` (stereo not shown) [Compound 360], the “% Fold Act. (percent maximum fold activation)” value is on record as “A (Fold activation>200%)” and the “EC1.5 μM” value was “A (EC1.5<1.0 μM)”.

As for `Cn1c(-c2cccc(C(F)(F)F)c2)nc2c(NS(=O)(=O)c3cccnc3)cccc2c1=O` [Compound 361], the “% Fold Act. (percent maximum fold activation)” value was “B (Fold Activation<200%)” and the “EC1.5 μM” value is “C (EC1.5>25 μM)”.

`Cn1c(-c2cccc(C(F)(F)F)c2)nc2c(NS(=O)(=O)c3ccccn3)cccc2c1=O` [Compound 362]: the “% Fold Act. (percent maximum fold activation)” value was “B (Fold Activation<200%)” and the “EC1.5 μM” value is listed as “C (EC1.5>25 μM)”.

For the compound `Cn1c(-c2cccc(C(F)(F)F)c2)nc2c(C(=O)Nc3cccc(OC[C@H](O)CO)c3)cccc2c1=O` [Compound 363], the “% Fold Act. (percent maximum fold activation)” value was “A (Fold activation>200%)” and the “EC1.5 μM” value was “A (EC1.5<1.0 μM)”.

With `Cn1c(-c2cccc(C(F)(F)F)c2)nc2c(NC(=O)c3cccc(CN4CCCC4)c3)cccc2c1=O` [Compound 364], the “% Fold Act. (percent maximum fold activation)” value is recorded as “A (Fold activation>200%)” and the “EC1.5 μM” value is reported as “B (EC1.5 1-25 μM)”.

As for `Cn1c(-c2cccc(C(F)(F)F)c2)nc2c(NC(=O)C3CCCC(=O)N3)cccc2c1=O` (stereo not shown) [Compound 365], the “% Fold Act. (percent maximum fold activation)” value is “A (Fold activation>200%)” and the “EC1.5 μM” value is recorded as “B (EC1.5 1-25 μM)”.

`Cn1c(-c2cccc(C(F)(F)F)c2)nc2c(C(=O)Nc3nc(CN4CCNCC4)cs3)cccc2c1=O` [Compound 366]: the “% Fold Act. (percent maximum fold activation)” value is recorded as “A (Fold activation>200%)” and the “EC1.5 μM” value is on record as “A (EC1.5<1.0 μM)”.

With `CCc1nnc(NC(=O)c2cccc3c(=O)cc(-c4cccc(C(F)(F)F)c4)[nH]c23)s1` [Compound 400], the “% Fold Act. (percent maximum fold activation)” value is on record as “A (Fold activation>200%)” and the “EC1.5 μM” value is listed as “A (EC1.5<1.0 μM)”.

In the case of `O=C(Nc1ccccn1)c1cccc2c(=O)cc(-c3cccc(C(F)(F)F)c3)[nH]c12` [Compound 401, 4-oxo-N-(pyridin-2-yl)-2-(3-(trifluoromethyl)phenyl)-1,4-dihydroquinoline-8-carboxamide], the “% Fold Act. (percent maximum fold activation)” value is given as “A (Fold activation>200%)” and the “EC1.5 μM” value was “A (EC1.5<1.0 μM)”.

Take `O=C(Nc1ccncc1)c1cccc2c(=O)cc(-c3cccc(C(F)(F)F)c3)[nH]c12` [Compound 402]: the “% Fold Act. (percent maximum fold activation)” value is “A (Fold activation>200%)” and the “EC1.5 μM” value is “A (EC1.5<1.0 μM)”.

As for `O=C(Nc1cnccn1)c1cccc2c(=O)cc(-c3cccc(C(F)(F)F)c3)[nH]c12` [Compound 403], the “% Fold Act. (percent maximum fold activation)” value was “A (Fold activation>200%)” and the “EC1.5 μM” value was “A (EC1.5<1.0 μM)”.

In the case of `O=C(Nc1nccs1)c1cccc2c(=O)cc(-c3cccc(C(F)(F)F)c3)[nH]c12` [Compound 404], the “% Fold Act. (percent maximum fold activation)” value was “A (Fold activation>200%)” and the “EC1.5 μM” value is listed as “A (EC1.5<1.0 μM)”.

With `O=C(Nc1cccc2c(=O)cc(-c3cccc(C(F)(F)F)c3)[nH]c12)c1cscn1` [Compound 405], the “% Fold Act. (percent maximum fold activation)” value was “A (Fold activation>200%)” and the “EC1.5 μM” value was “A (EC1.5<1.0 μM)”.

In the case of `Cc1cc(NC(=O)c2cccc3c(=O)cc(-c4cccc(C(F)(F)F)c4)[nH]c23)on1` [Compound 406], the “% Fold Act. (percent maximum fold activation)” value is “A (Fold activation>200%)” and the “EC1.5 μM” value was “A (EC1.5<1.0 μM)”.

As for `Cc1cc(NC(=O)c2cccc3c(=O)cc(-c4cccc(C(F)(F)F)c4)[nH]c23)n(C)n1` [Compound 407], the “% Fold Act. (percent maximum fold activation)” value is listed as “A (Fold activation>200%)” and the “EC1.5 μM” value is “A (EC1.5<1.0 μM)”.

As for `O=C(Nc1cccc2c(=O)cc(-c3cccc(C(F)(F)F)c3)[nH]c12)c1ccccn1` [Compound 408], the “% Fold Act. (percent maximum fold activation)” value was “A (Fold activation>200%)” and the “EC1.5 μM” value is recorded as “A (EC1.5<1.0 μM)”.

For the compound `O=C(Nc1cccc2c(=O)cc(-c3cccc(C(F)(F)F)c3)[nH]c12)c1cnccn1` [Compound 409, N-(4-oxo-2-(3-(trifluoromethyl)phenyl)-1,4-dihydroquinolin-8-yl)pyrazine-2-carboxamide], the “% Fold Act. (percent maximum fold activation)” value is listed as “A (Fold activation>200%)” and the “EC1.5 μM” value is given as “A (EC1.5<1.0 μM)”.
